In patent US20250179051A1, “PYRIMIDINLY-OXY-QUINOLINE BASED HERBICIDAL COMPOUNDS” (SYNGENTA CROP PROTECTION AG, priority 2022, published 2025):

Columns and labels:
Format in all cases: in vivo
Details in all cases: 250 g/ha, evaluated after 13 days, five-point scale
[1] = tested on: Echinochloa crus-galli (ECHCG); experiment: Post-emergence herbicide glasshouse test
Method: (§1) Seeds of a variety of test species are sown in standard soil in pots Amaranthus retoflexus (AMARE), Amaranthus palmeri (AMAPA), Echinochloa crus-galli (ECHCG), Ipomoea hederacea (IPOHE), Setaria faberi (SETFA). After cultivation for one day (pre-emergence) or after 8 days cultivation (post-emergence) under controlled conditions in a glasshouse (at 24/16° C., day/night; 14 hours light; 65% humidity), the plants are sprayed with an aqueous spray solution derived from the formulation of the technical active ingredient in acetone/water (50:50) solution containing 0.5% Tween 20 (polyoxyethelyene sorbitan monolaurate, CAS RN 9005-64-5). Compounds are applied at 250 g/ha unless otherwise stated. The test plants are then grown in a glasshouse under controlled conditions in a glasshouse (at 24/16° C., day/night; 14 hours light; 65% humidity) and watered twice daily. After 13 days for pre and post-emergence, the test is evaluated for the percentage damage caused to the plant. The biological activities are shown in the following table on a five-point scale (5=81-100%; 4=61-80%; 3=41-60%; 2=21-40%; 1=0-20%).

[2] = tested on: Amaranthus retoflexus (AMARE); experiment: Post-emergence herbicide glasshouse test
Method: as §1

[3] = tested on: Setaria faberi (SETFA); experiment: Post-emergence herbicide glasshouse test
Method: as §1

[4] = tested on: Amaranthus palmeri (AMAPA); experiment: Post-emergence herbicide glasshouse test
Method: as §1

[5] = tested on: Ipomoea hederacea (IPOHE); experiment: Post-emergence herbicide glasshouse test
Method: as §1

[6] = tested on: Echinochloa crus-galli (ECHCG); experiment: Pre-emergence herbicide glasshouse test
Method: as §1

[7] = tested on: Amaranthus retoflexus (AMARE); experiment: Pre-emergence herbicide glasshouse test
Method: as §1

[8] = tested on: Setaria faberi (SETFA); experiment: Pre-emergence herbicide glasshouse test
Method: as §1

[9] = tested on: Amaranthus palmeri (AMAPA); experiment: Pre-emergence herbicide glasshouse test
Method: as §1

[10] = tested on: Ipomoea hederacea (IPOHE); experiment: Pre-emergence herbicide glasshouse test
Method: as §1

| Compound | percentage damage caused to the plant, ECHCG [1] | percentage damage caused to the plant, AMARE [2] | percentage damage caused to the plant, SETFA [3] | percentage damage caused to the plant, AMAPA [4] | percentage damage caused to the plant, IPOHE [5] | percentage damage caused to the plant, ECHCG [6] | percentage damage caused to the plant, AMARE [7] | percentage damage caused to the plant, SETFA [8] | percentage damage caused to the plant, AMAPA [9] | percentage damage caused to the plant, IPOHE [10] |
| --- | --- | --- | --- | --- | --- | --- | --- | --- | --- | --- |
| CO/N=C/CCc1nc(C(F)(F)F)nc2cccc(Oc3ncc(Cl)cn3)c12 [Compound 1.025, (E)-3-[5-(5-chloropyrimidin-2-yl)oxy-2-(trifluoromethyl)quinazolin-4-yl]-N-methoxy-propan-1-imine] | 5 (5=81-100%) | 5 (5=81-100%) | 5 (5=81-100%) | 4 (4=61-80%) | 4 (4=61-80%) | 5 (5=81-100%) | 5 (5=81-100%) | 5 (5=81-100%) | 5 (5=81-100%) | 4 (4=61-80%) |
| O=C(c1ccc(Br)cn1)c1nc(C(F)(F)F)nc2cccc(Oc3ncc(Cl)cn3)c12 [Compound 1.026] | 1 (1=0-20%) | 1 (1=0-20%) | 1 (1=0-20%) | 2 (2=21-40%) | 1 (1=0-20%) | 1 (1=0-20%) | 4 (4=61-80%) | 1 (1=0-20%) | 4 (4=61-80%) | 1 (1=0-20%) |
| O=C(c1ccc(F)cn1)c1nc(C(F)(F)F)nc2cccc(Oc3ncc(Cl)cn3)c12 [Compound 1.027] | 1 (1=0-20%) | 2 (2=21-40%) | 1 (1=0-20%) | 1 (1=0-20%) | 1 (1=0-20%) | 1 (1=0-20%) | 2 (2=21-40%) | 1 (1=0-20%) | 2 (2=21-40%) | 1 (1=0-20%) |
| CC(=O)c1nc(C(F)(F)F)nc2cccc(Oc3ncc(Cl)cn3)c12 [Compound 1.028, 1-[5-(5-chloropyrimidin-2-yl)oxy-2-(trifluoromethyl)quinazolin-4-yl]ethanone] | 1 (1=0-20%) | 4 (4=61-80%) | 2 (2=21-40%) | 4 (4=61-80%) | 3 (3=41-60%) | 2 (2=21-40%) | 5 (5=81-100%) | 3 (3=41-60%) | 5 (5=81-100%) | 1 (1=0-20%) |
| O=C(c1ccccn1)c1nc(C(F)(F)F)nc2cccc(Oc3ncc(Cl)cn3)c12 [Compound 1.029, [5-(5-chloropyrimidin-2-yl)oxy-2-(trifluoromethyl)quinazolin-4-yl]-(2-pyridyl) methanone] | 1 (1=0-20%) | 1 (1=0-20%) | 1 (1=0-20%) | 1 (1=0-20%) | 1 (1=0-20%) | 1 (1=0-20%) | 1 (1=0-20%) | 1 (1=0-20%) | 1 (1=0-20%) | 1 (1=0-20%) |
| O=C(c1cccnc1)c1nc(C(F)(F)F)nc2cccc(Oc3ncc(Cl)cn3)c12 [Compound 1.030] | 2 (2=21-40%) | 5 (5=81-100%) | 2 (2=21-40%) | 5 (5=81-100%) | 2 (2=21-40%) | 4 (4=61-80%) | 5 (5=81-100%) | 4 (4=61-80%) | 5 (5=81-100%) | 1 (1=0-20%) |
| FC(F)(F)c1nc(CCC2CCOC2)c2c(Oc3ncc(Cl)cn3)cccc2n1 (stereo not shown) [Compound 1.031] | 5 (5=81-100%) | 5 (5=81-100%) | 5 (5=81-100%) | 4 (4=61-80%) | 5 (5=81-100%) | 5 (5=81-100%) | 5 (5=81-100%) | 5 (5=81-100%) | 5 (5=81-100%) | 5 (5=81-100%) |
| FC(F)(F)c1nc(CCC2CC2)c2c(Oc3ncc(Cl)cn3)cccc2n1 [Compound 1.032] | 5 (5=81-100%) | 5 (5=81-100%) | 5 (5=81-100%) | 4 (4=61-80%) | 4 (4=61-80%) | 5 (5=81-100%) | 5 (5=81-100%) | 5 (5=81-100%) | 5 (5=81-100%) | 1 (1=0-20%) |
| FC(F)(F)c1nc(CCC2COC2)c2c(Oc3ncc(Cl)cn3)cccc2n1 [Compound 1.033] | 5 (5=81-100%) | 4 (4=61-80%) | 5 (5=81-100%) | 2 (2=21-40%) | 5 (5=81-100%) | 5 (5=81-100%) | 4 (4=61-80%) | 5 (5=81-100%) | 5 (5=81-100%) | 5 (5=81-100%) |
| CC(=O)N1CCC(CCc2nc(C(F)(F)F)nc3cccc(Oc4ncc(Cl)cn4)c23)CC1 [Compound 1.034] | 4 (4=61-80%) | 5 (5=81-100%) | 5 (5=81-100%) | 4 (4=61-80%) | 2 (2=21-40%) | 2 (2=21-40%) | 2 (2=21-40%) | 4 (4=61-80%) | 3 (3=41-60%) | 1 (1=0-20%) |
| FC(F)c1cc(-c2nc(C(F)(F)F)nc3cccc(Oc4ncc(Cl)cn4)c23)on1 [Compound 1.035, 5-[5-(5-chloropyrimidin-2-yl)oxy-2-(trifluoromethyl)quinazolin-4-yl]-3-(difluoromethyl)isoxazole] | 1 (1=0-20%) | 4 (4=61-80%) | 2 (2=21-40%) | 4 (4=61-80%) | 1 (1=0-20%) | 2 (2=21-40%) | 5 (5=81-100%) | 3 (3=41-60%) | 5 (5=81-100%) | 1 (1=0-20%) |
| O=C(c1ccncc1)c1nc(C(F)(F)F)nc2cccc(Oc3ncc(Cl)cn3)c12 [Compound 1.036] | 1 (1=0-20%) | 3 (3=41-60%) | 1 (1=0-20%) | 3 (3=41-60%) | 1 (1=0-20%) | 3 (3=41-60%) | 3 (3=41-60%) | 3 (3=41-60%) | 4 (4=61-80%) | 1 (1=0-20%) |
| OCC(O)CCc1nc(C(F)(F)F)nc2cccc(Oc3ncc(Cl)cn3)c12 (stereo not shown) [Compound 1.037, 4-[5-(5-chloropyrimidin-2-yl)oxy-2-(trifluoromethyl)quinazolin-4-yl]butane-1,2-diol] | 1 (1=0-20%) | 3 (3=41-60%) | 1 (1=0-20%) | 3 (3=41-60%) | 1 (1=0-20%) | 1 (1=0-20%) | 1 (1=0-20%) | 1 (1=0-20%) | 1 (1=0-20%) | 1 (1=0-20%) |
